Measured values taken from patent US20230135894A1, “MK2 DEGRADERS AND USES THEREOF” (Kymera Therapeutics, Inc., priority 2021, published 2023).

Legend:
MK2 [1] = biological target: T1, MK2 (Homo sapiens, UniProt P49137); assay: MK2 degradation in human SW1353 cells (MSD, 24 h); assay type: cell-based; parameters: endogenous in cells; host or cells: SW-1353 (ATCC HTB-94); key to MK2 MSD SW1353 degradation 24 h GMean External Abs DC50: A (<0.001 μM); B (0.001-0.01 μM); C (0.01-0.1 μM); D (>0.1 μM); —: “-”=not tested or inactive; key to MK2 MSD SW 1353 24 h Dmax %: —: “-”=not tested or inactive; conditions: for Dmax: read-out: MK2 MSD SW 1353 24 h Dmax %; for DC50: read-out: MK2 MSD SW1353 degradation 24 h GMean External Abs DC50
T1 sequence (P49137 whole entry): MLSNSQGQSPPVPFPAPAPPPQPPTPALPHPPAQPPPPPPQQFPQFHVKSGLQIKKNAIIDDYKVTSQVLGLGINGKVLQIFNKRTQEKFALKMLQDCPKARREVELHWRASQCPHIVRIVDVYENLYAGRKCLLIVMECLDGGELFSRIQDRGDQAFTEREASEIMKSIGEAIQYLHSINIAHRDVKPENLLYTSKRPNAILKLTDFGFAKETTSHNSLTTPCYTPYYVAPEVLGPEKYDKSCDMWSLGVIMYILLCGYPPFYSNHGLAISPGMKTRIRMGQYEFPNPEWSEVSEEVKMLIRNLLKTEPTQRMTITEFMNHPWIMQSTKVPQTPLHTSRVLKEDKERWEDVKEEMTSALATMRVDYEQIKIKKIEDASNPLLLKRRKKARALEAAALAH
How it was run: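 SW1353 chondrosarcoma cells were treated with up to 10-point serial dilutions (0.1% DMSO) for 24 h at 37 °C, then lysed in RIPA buffer. MK2 levels were quantified by MSD sandwich immunoassay; DC50 came from a 4-parameter logistic fit normalised to DMSO-treated cells (high) and lysis buffer (low).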

MK2 [2] = biological target: T1, MK2; assay: MK2 degradation in human THP-1 monocytic cells (MSD, 24 h); assay type: cell-based; parameters: endogenous in cells; key to MK2 MSD THP-1 degradation 24 h GMean External Abs DC50: A (<0.001 μM); B (0.001-0.01 μM); C (0.01-0.1 μM); D (>0.1 μM); —: “-”=not tested or inactive; conditions: for Dmax: THP-1, THP-1 cells; for DC50 / MK2 MSD THP-1 degradation 24 h GMean External Abs DC50: THP-1 cells; for DC50: read-out: MK2 MSD THP-1 degradation 24 h GMean External Abs DC50
How it was run: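 THP-1 cells (200,000/well) treated 24 h at 37 °C with compound dilution series (up to 10 points, 0.1% DMSO). MK2 in RIPA lysates quantified by MSD sandwich immunoassay. DC50 from 4-parameter logistic fit, DMSO-treated cells as high and lysis buffer as low signal.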

Row | Structure (SMILES) | Dmax (MK2 [1]) [%] | DC50 (MK2 [1]) [nM] | Dmax (MK2 [2]) [%] | DC50 (MK2 [2]) [nM] | MK2 MSD SW1353 degradation 24 h GMean External Abs DC50 (MK2 [1]) | MK2 MSD SW 1353 24 h Dmax % (MK2 [1]) | MK2 MSD THP-1 degradation 24 h GMean External Abs DC50 (MK2 [2])
1 | Cn1c(=O)n(C2CCC(=O)NC2=O)c2ccc(N3CC(CN4CCN(c5ccc(-c6cc(-c7cc8c([nH]7)C7(CC7)CNC8=O)ccn6)c(F)c5)CC4)C3)cc21 (stereo not shown) [Compound I-425] | > 75 | < 1 | > 75 | < 1 |  |  | 
2 | Cn1c(=O)n(C2CCC(=O)NC2=O)c2cccc(N3CC(N4CCN(c5ccc(-c6cc(-c7cc8c([nH]7)C7(CCCC7)CNC8=O)ccn6)cc5)CC4)C3)c21 (stereo not shown) [Compound I-418] | > 75 | < 1 | > 75 | 1 to 10 |  |  | 
3 | C[C@@H]1CNc2c(sc3ccc4nc(-c5ccc(N6CCN(CC7CCN(c8ccc9c(c8)n(C)c(=O)n9C8CCC(=O)NC8=O)CC7)CC6)nc5)ccc4c23)C(=O)N1 (stereo partly shown) [Compound I-129] | > 75 | < 1 | > 75 | < 1 |  |  | 
4 | C[C@@H]1CN(C)c2c(sc3ccc4nc(-c5ccc(N6CCN(CCCc7ccc8c(c7)n(C)c(=O)n8C7CCC(=O)NC7=O)CC6)cc5)ccc4c23)C(=O)N1 (stereo partly shown) [Compound I-266] | > 75 | 1 to 10 | > 75 | 1 to 10 |  |  | 
5 | Cn1c(=O)n(C2CCC(=O)NC2=O)c2ccc(N3CC(CN4CCN(c5ccc(-c6cc(-c7cc8c([nH]7)C7(CC7)CNC8=O)ccn6)cc5)CC4)C3)cc21 (stereo not shown) [Compound I-189] | > 75 | < 1 | > 75 | < 1 |  |  | 
6 | Cc1cnc(-c2ccnc(C(=O)NCCCCCCc3ccc4c(c3)n(C)c(=O)n4C3CCC(=O)NC3=O)n2)cc1-n1c(C)cc(OCc2ncc(F)cc2F)c(Cl)c1=O (stereo not shown) [Compound I-220] | < 50 | > 100 | < 50 | > 100 |  |  | 
7 | C[C@@H]1CNc2c(sc3ccc4nc(-c5cccc(N6CCN(CCCCCCCCCCc7cccc8c7n(C)c(=O)n8C7CCC(=O)NC7=O)CC6)c5)ccc4c23)C(=O)N1 (stereo partly shown) [Compound I-177] | > 75 | 10 to 100 | > 75 | 10 to 100 |  |  | 
8 | Cn1c(=O)n(C2CCC(=O)NC2=O)c2ccc(CCCCCCN3CC4(CCN(c5ccc6c(c5)Cn5cc(-c7ccc(F)cc7)cc5-c5nccn5-6)C4)C3)cc21 (stereo not shown) [Compound I-168] | < 50 | > 100 | < 50 | > 100 |  |  | 
9 | CC(C)Oc1cc(-c2ccc3c(ccc4sc5c(c43)NC[C@@H](C)NC5=O)n2)cc(N2CCN(CC3CCN(c4ccc5c(c4)n(C)c(=O)n5C4CCC(=O)NC4=O)CC3)CC2)c1 (stereo partly shown) [Compound I-230] | > 75 | < 1 | > 75 | < 1 |  |  | 
10 | C[C@@H]1CNc2c(sc3ccc4nc(-c5cncc(N6CCN(CCCCCc7cccc8c7n(C)c(=O)n8C7CCC(=O)NC7=O)CC6)c5)ccc4c23)C(=O)N1 (stereo partly shown) [Compound I-156] | > 75 | < 1 | > 75 | < 1 |  |  | 
11 | Cn1c(=O)n(C2CCC(=O)NC2=O)c2cccc(CCN3CCN(c4ccc(-c5cc(-c6cc7c([nH]6)C6(CC6)CNC7=O)ccn5)cc4)CC3)c21 (stereo not shown) [Compound I-203] | > 75 |  | > 75 | 1 to 10 | — |  | 
12 | CN1CC2(CNC(=O)c3c2[nH]c2c3CCc3cnc(-c4cc(N5CCN(CCCCc6cccc7c6n(C)c(=O)n7C6CCC(=O)NC6=O)CC5)ccc4F)cc3-2)C1 (stereo not shown) [Compound I-155] | < 50 | > 100 | < 50 | > 100 |  |  | 
13 | Cn1c(=O)n(C2CCC(=O)NC2=O)c2cccc(C3CCN(CC4CCN(c5ccc(F)c(-c6cc(-c7cc8c([nH]7)CCNC8=O)ccn6)c5)CC4)CC3)c21 (stereo not shown) [Compound I-146] | < 50 | > 100 | < 50 | > 100 |  |  | 
14 | C[C@@H]1CNc2c(sc3ccc4nc(-c5cccc(N6CCC(CN7CCC(c8cccc9c8n(C)c(=O)n9C8CCC(=O)NC8=O)CC7)CC6)c5)ccc4c23)C(=O)N1 (stereo partly shown) [Compound I-96] | > 75 | 1 to 10 | > 75 | < 1 |  |  | 
15 | Cn1c(=O)n(C2CCC(=O)NC2=O)c2ccc(N3CCC(CN4CCN(c5cc(-c6ccc7cc[nH]c7c6)cc(-c6cc(-c7cc8c([nH]7)CCNC8=O)ccn6)c5)CC4)CC3)cc21 (stereo not shown) [Compound I-206] |  |  | 50 to 75 | 1 to 10 | — | — | 
16 | Cn1c(=O)n(C2CCC(=O)NC2=O)c2ccc(N3CC(CN4CCN(c5ccc(-c6cc(-c7cc8c([nH]7)C7(CCCC7)CNC8=O)ccn6)c(F)c5)CC4)C3)cc21 (stereo not shown) [Compound I-422] | > 75 | < 1 | > 75 | < 1 |  |  | 

Row | Structure (SMILES) | Dmax (MK2 [1]) [%] | DC50 (MK2 [1]) [nM] | Dmax (MK2 [2]) [%] | DC50 (MK2 [2]) [nM] | MK2 MSD SW1353 degradation 24 h GMean External Abs DC50 (MK2 [1]) | MK2 MSD SW 1353 24 h Dmax % (MK2 [1]) | MK2 MSD THP-1 degradation 24 h GMean External Abs DC50 (MK2 [2])
17 | Cn1c(=O)n(C2CCC(=O)NC2=O)c2cccc(CCCN3CCN(c4ccc(-c5cc(-c6cc7c([nH]6)C6(CC6)CNC7=O)ccn5)cn4)CC3)c21 (stereo not shown) [Compound I-199] | > 75 |  | > 75 | 1 to 10 | — |  | 
18 | C[C@@H]1CNc2c(sc3ccc4nc(-c5ccc(N6CCC(CN7CCN(c8ccc9c(c8)CN(C8CCC(=O)NC8=O)C9=O)CC7)CC6)cc5)ccc4c23)C(=O)N1 (stereo partly shown) [Compound I-313] | > 75 | 1 to 10 | > 75 | 1 to 10 |  |  | 
19 | C[C@@H]1CNc2c(sc3ccc4nc(-c5ccc(N6CCN(CCc7ccc8c(c7)n(C)c(=O)n8C7CCC(=O)NC7=O)CC6)nc5)ccc4c23)C(=O)N1 (stereo partly shown) [Compound I-279] | > 75 | < 1 | > 75 | < 1 |  |  | 
20 | CCc1cc(-c2cc(-c3cc4c([nH]3)CCNC4=O)ccn2)cc(CC)c1N1CCN(CC2CCN(c3ccc4c(c3)n(C)c(=O)n4C3CCC(=O)NC3=O)CC2)CC1 (stereo not shown) [Compound I-447] | 50 to 75 | 10 to 100 | < 50 | > 100 |  |  | 
21 | C[C@@H]1CNc2c(sc3ccc4nc(N5CCC(N6CCC7(CCN(c8ccc9c(c8)n(C)c(=O)n9C8CCC(=O)NC8=O)CC7)CC6)CC5)ccc4c23)C(=O)N1 (stereo partly shown) [Compound I-395] | > 75 | < 1 | > 75 | 1 to 10 |  |  | 
22 | Cn1c(=O)n(C2CCC(=O)NC2=O)c2cccc(CCN3CCN(c4ccc(-c5cc(-c6cc7c([nH]6)C6(CC6)CNC7=O)ccn5)c(F)c4)CC3)c21 (stereo not shown) [Compound I-179] | > 75 |  | > 75 |  | — |  | —
23 | C[C@@H]1CNc2c(sc3ccc4nc(-c5ccc(CNC(=O)COCCOCCOCCOCCc6cccc7c6n(C)c(=O)n7C6CCC(=O)NC6=O)cc5)ccc4c23)C(=O)N1 (stereo partly shown) [Compound I-92] | > 75 | 1 to 10 | > 75 | 1 to 10 |  |  | 
24 | Cc1nc(N2CCN(CCCc3ccc4c(c3)n(C)c(=O)n4C3CCC(=O)NC3=O)CC2)ccc1-c1ccc2c(ccc3sc4c(c32)NC[C@@H](C)NC4=O)n1 (stereo partly shown) [Compound I-259] | > 75 | 1 to 10 | < 50 |  |  |  | —
25 | Cn1c(=O)n(C2CCC(=O)NC2=O)c2ccc(N3CCC(CN4CCN(c5ccc6cc(-c7cc(Nc8ccnc(N)n8)cc8cn[nH]c78)oc6c5)CC4)CC3)cc21 (stereo not shown) [Compound I-454] | < 50 | > 100 | < 50 | > 100 |  |  | 
26 | C[C@@H]1CNc2c(sc3ccc4nc(N5CCC(N6CC7(CCN(c8ccc9c(c8)n(C)c(=O)n9C8CCC(=O)NC8=O)CC7)C6)CC5)ccc4c23)C(=O)N1 (stereo partly shown) [Compound I-440] | > 75 | < 1 | > 75 | < 1 |  |  | 
27 | C[C@@H]1CNc2c(sc3ccc4nc(-c5cccc(N6CCN(CC7CCN(c8ccc9c(c8)CN(C8CCC(=O)NC8=O)C9=O)CC7)CC6)c5)ccc4c23)C(=O)N1 (stereo partly shown) [Compound I-303] | > 75 | 1 to 10 | > 75 | < 1 |  |  | 
28 | C[C@@H]1CNc2c(sc3ccc4nc(-c5ccc(N6CCN(CC7CCN(c8cccc(C9CCC(=O)NC9=O)c8)CC7)CC6)nc5)ccc4c23)C(=O)N1 (stereo partly shown) [Compound I-420] | > 75 | 1 to 10 | > 75 | 1 to 10 |  |  | 
29 | C[C@@H]1CNc2c(sc3ccc4nc(-c5ccc(N6CCC(CN7CCN(c8cccc9c8n(C)c(=O)n9C8CCC(=O)NC8=O)CC7)CC6)cc5F)ccc4c23)C(=O)N1 (stereo partly shown) [Compound I-307] | > 75 | 1 to 10 | > 75 | 1 to 10 |  |  | 
30 | C[C@@H]1CNc2c(sc3ccc4nc(-c5ccc(N6CCN(CCCCCc7cccc8c7n(C)c(=O)n8C7CCC(=O)NC7=O)CC6)cc5)ccc4c23)C(=O)N1 (stereo partly shown) [Compound I-171] | > 75 | 1 to 10 | 50 to 75 | 1 to 10 |  |  | 
31 | C[C@@H]1CNc2c(sc3ccc4nc(-c5cccc(C#CCCNC(=O)COCCOCCOCCOCCc6ccc7c(c6)n(C)c(=O)n7C6CCC(=O)NC6=O)c5)ccc4c23)C(=O)N1 (stereo partly shown) [Compound I-51] | > 75 | 1 to 10 | > 75 | 1 to 10 |  |  | 
